“And” between values parts separate entries of the source, which are not always exact repeats. Equal entries are not always repeated.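 Exposure lasted 48 hours, with cells grown in 96-well plates and compounds tested at five concentrations. GI50 marks 50% less growth. TGI is the concentration that stops growth completely.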
Experiments:
Test in all cases: DTP human tumour cell line panel, 48 h
[1] = system: SW-620 colon
[2] = system: UACC-257 melanoma
[3] = system: SF-539 CNS
[4] = system: 786-0 renal
[5] = system: ACHN renal
[6] = system: SK-OV-3 ovarian
[7] = system: SN12C renal
[8] = system: UO-31 renal
[9] = system: OVCAR-4 ovarian
[10] = system: SF-268 CNS

Row | Structure (SMILES) | GI50 [1] | TGI [1] | GI50 [2] | TGI [2] | GI50 [3] | TGI [3] | GI50 [4] | TGI [4] | GI50 [5] | TGI [5] | GI50 [6] | TGI [6] | GI50 [7] | TGI [7] | GI50 [8] | TGI [8] | GI50 [9] | TGI [9] | GI50 [10] | TGI [10]
1 | Cc1cn2c(/C=C3\C(=O)Nc4ccc(O)cc43)c(-c3ccc(Cl)cc3)nc2s1 | 35.6 µM | > 100 µM | 21.3 µM | > 100 µM | 17.5 µM | 33.9 µM | 16.6 µM | 32.7 µM | 17.8 µM | > 100 µM | 25.9 µM | 62.7 µM | 10.4 µM | 25.5 µM | 5.37 µM | 59.9 µM | 7.31 µM | 27.8 µM | 15.2 µM | 54.5 µM
2 | CCOc1ccc2c(c1)[n+]([O-])c(-c1ccccc1Cl)c(N)[n+]2[O-] |  | > 100 µM |  | > 100 µM |  | > 100 µM |  | > 100 µM |  | > 100 µM |  | > 100 µM |  | > 100 µM |  | > 100 µM |  | > 100 µM |  | > 100 µM
3 | COc1ccncc1C#Cc1cncc(C(=O)Nc2ccc(CN3CCN(C)CC3)c(C(F)(F)F)c2)c1 | 14.6 µM | 64.3 µM | 21.5 µM | > 100 µM | 5.39 µM | 66.6 µM | 35.8 µM | > 100 µM | 19.3 µM | > 100 µM | 28.9 µM | > 100 µM | 16.8 µM | > 100 µM | 15.4 µM | > 100 µM | 6.07 µM | > 100 µM | 17.5 µM | 66.2 µM
4 | Cc1ccc(/C=C/c2c(C(=O)/C=C/c3ccc(C(F)(F)F)cc3)c(C)nc3ccccc23)cc1 | 1.29 µM | 4.38 µM | 2.15 µM | 4.95 µM | 1.79 µM | 3.26 µM | 1.7 µM | 3.18 µM | 1.4 µM | 2.7 µM | 1.8 µM | 3.6 µM | 1.51 µM | 2.97 µM | 1.01 µM | 2.17 µM | 1.61 µM | 3.37 µM | 1.57 µM | 3.09 µM
5 | Cc1ccc(NC(=O)C2C(=O)N(c3ccc(C)c(C)c3)C(=O)C2N=N)cc1C (stereo not drawn) |  | > 100 µM |  | > 100 µM |  | > 100 µM |  | > 100 µM |  | > 100 µM |  | > 100 µM |  | > 100 µM |  | > 100 µM |  | > 100 µM |  | > 100 µM
6 | CCN1CCN=c2c3cc(OC)ccc3n3cnc4ccc1c2c43 |  | 2.08 µM |  | 2.05 µM |  | 0.413 µM |  | 0.394 µM |  | 0.792 µM |  | 1.79 µM |  | 0.433 µM |  | 0.385 µM |  | 1.86 µM |  | 4.69 µM
7 | COC(=O)[C@]1(C)CCCC2(C)C1CC[C@H]1C=C(C)[C@H]3CCC12C3 (stereo partly drawn) |  | > 100 µM |  | > 100 µM |  | > 100 µM |  | > 100 µM |  | > 100 µM |  | > 100 µM |  | > 100 µM |  | > 100 µM |  | > 100 µM |  | > 100 µM
8 | CC(=O)c1cc2c(o1)C(=O)c1ccccc1C2=O | 0.288 µM and 0.276 µM | 0.794 µM and 0.756 µM | 0.191 µM and 0.197 µM | 0.37 µM and 0.451 µM | 0.178 µM and 0.184 µM | 0.317 µM and 0.328 µM | 0.381 µM and 1.21 µM | 1.02 µM and 2.71 µM | 0.467 µM and 0.415 µM | 1.6 µM and 1.31 µM | 1.41 µM and 1.78 µM | 2.86 µM and 3.3 µM | 0.177 µM | 0.346 µM | 0.219 µM and 0.217 µM | 0.57 µM and 0.531 µM | 0.255 µM and 0.377 µM | 0.767 µM and 1.48 µM | 0.28 µM and 0.513 µM | 0.959 µM and 2.3 µM
9 | Nc1nccc2c1ccn2-c1ccc(NC(=O)c2ccc(N3CCOCC3)c(C(F)(F)F)c2)cc1 | 1.06 µM | 4.14 µM | 2.15 µM | 8.61 µM | 0.491 µM | 5.96 µM | 0.207 µM | 0.529 µM | 0.928 µM | 16.3 µM | 2.44 µM | 23.5 µM | 4.86 µM | 20.4 µM | 0.573 µM | 4.15 µM | 1.96 µM | 24.6 µM | 0.879 µM | 15.1 µM
10 | CC(CC(=O)O)C(C(=O)O)C(=O)O (stereo not drawn) |  | > 100 µM |  | > 100 µM |  | > 100 µM |  | > 100 µM |  | > 100 µM |  | > 100 µM |  | > 100 µM |  | > 100 µM |  | > 100 µM |  | > 100 µM
11 | CCCn1c(N)c(C(=O)N/N=C(/C)c2cc3cccc(OC)c3o2)sc1=S | 19.2 µM | > 100 µM | 23.2 µM | > 100 µM | 17.1 µM | 90.7 µM | 25.5 µM | 51.6 µM | 46.8 µM | > 100 µM | 65.4 µM | > 100 µM | 45 µM | > 100 µM | 27.7 µM | > 100 µM | 49.7 µM | > 100 µM | 22.4 µM | > 100 µM
12 | COc1cccc(/C=N/[N-]C(=O)c2ccncc2)c1[O-].[Cu+2].[OH3+] | 48.2 µM | > 100 µM | > 100 µM | > 100 µM | 18.2 µM | 76.8 µM | 63.4 µM | > 100 µM | 90.8 µM | > 100 µM | 15.1 µM | 82 µM | 49.7 µM | > 100 µM | 45.5 µM | > 100 µM | 78.6 µM | > 100 µM | 28 µM | > 100 µM
13 | C=CCc1cccc(/C=N/NC(=O)CN2CCN(Cc3ccccc3)CC2)c1O | 3.8 µM | 17.1 µM | 2.46 µM | 13.8 µM | 2.32 µM | 9.49 µM | 2.04 µM | 12.1 µM | 1.54 µM | 12 µM | 2.88 µM | 17.8 µM | 4.4 µM | 18.9 µM | 1.15 µM | 7.38 µM | 1.45 µM | 11.8 µM | 1.99 µM | 16.4 µM
14 | N#Cc1c(-c2ccc(F)cc2)c(-c2ccc(F)cc2)nn(CCO)c1=O |  | > 100 µM |  | > 100 µM |  | 0.553 µM |  | > 100 µM |  | > 81.1 µM |  | > 49.6 µM |  | > 100 µM |  | > 100 µM |  | > 100 µM |  | > 100 µM
15 | COc1cc(C2c3cc4c(cc3C(O)C(CO)C2CO)OCO4)cc(OC)c1OC (stereo not drawn) | 0.37 µM | > 100 µM | 0.67 µM | > 100 µM | 0.335 µM |  | 6.59 µM | > 100 µM | 8.09 µM | > 100 µM | 1.57 µM | > 100 µM | 4.94 µM | > 100 µM |  | > 100 µM | 7.6 µM | > 100 µM | 3.32 µM | > 100 µM

— PubChem BioAssay (NCI)
